From US20220257684A1, “ANTI-COCCIDIAL PHYTOGENIC FORMULATIONS” (priority 2019, published 2022)
Values joined by “and” are separate entries in the source; they are usually repeats but may differ in a detail not shown here. Equal values may be shown once. Marks after values point to notes of the source that are not given here.

Legend:
[1] = system: E. tenella challenged chickens; experiment: Fecal oocyst excretion in E. tenella challenged chickens; format: in vivo, chicken
Excerpt: (§1) FIG. 4A is a schematic drawing showing the experimental protocol used in in vivo studies. Birds in untreated groups had daily access to standard diet, and birds in treated groups were fed with diet containing salinomycin, A. indica (AI), B. pilosa (BP), or a mixture of AI plus BP. On day 7, chickens were challenged with PBS or E. tenella (ET) sporulated oocysts (1×10^4) by gavage. The survival rate in each group was monitored from day 1 to 7 post infection.
(§2) Birds, diets, and experimental design. One-day-old Lohmann broiler chicks hatched at Taichung Hatchery (Taiwan) were wing-banded upon arrival, weighed, and randomly placed in Petersime starter brooder units. At 1 to 2 days post-hatching, the birds were given free access to water and diets. The diets were formulated by mixing a base diet with a carrier alone (control diet) or with an indicated dose of a phytogenic formulation comprising Artemisia indica (AI), B. pilosa (BP), or both AI and BP. After grouping, birds were tube-fed with Eimeria oocysts to get infection. Growth performance (body weight and feed conversion), pathology (bloody droppings and gut morphometry) and survival rate were measured and examined (FIG. 4A). All birds were maintained in the institutional animal facility and handled according to institutional guidelines.
(§3) The anti-coccidial effects of the extracts of A. indica (AI), B. pilosa (BP) and a combination of both extracts were examined in vivo. Chickens were randomly divided into 8 groups and given daily (Day 1 to Day 14) access to standard chicken feed (Groups 1 and 2), feed containing salinomycin (Group 3), or feed containing the plant extracts (Groups 4 to 8) at the indicated doses (FIG. 4A).
Excretion of Eimeria oocysts in the feces of ET-infected chickens is an indicator of Eimeria multiplication. The oocysts per gram feces (OPG) in the chickens from FIG. 4B were counted from Day 3 to Day 7 post ET infection. No oocysts in the feces were detected in the uninfected unmedicated control group (Group 1, Table 3). Fecal oocyst excretion was first detected on Day 4 post infection in all the ET-infected groups and reached its peak on Day 7 post infection (Group 2).

[2] = system: E. tenella challenged chickens; experiment: Survival rate in E. tenella challenged chickens; format: in vivo, chicken; conditions: ET-infected chickens (1×10^4 oocysts), substance in feed; infected standard feed 60%; FIG. 4B
Excerpt: as §1
FIG. 4B is a graph showing survival rate in each group of FIG. 4A. Chickens were divided into eight groups: Group 1 (G1), uninfected and fed with a standard diet; Group 2 (G2), ET-infected and fed with a standard diet; Group 3 (G3) to Group 8 (G8), ET-infected and fed with diet containing salinomycin, BP alone, a combination of BP and different dosages of AI, or AI alone without BP as indicated. Each group has 15 chicks and P values are indicated.
Birds, diets, and experimental design. One-day-old Lohmann broiler chicks hatched at Taichung Hatchery (Taiwan) were wing-banded upon arrival, weighed, and randomly placed in Petersime starter brooder units. At 1 to 2 days post-hatching, the birds were given free access to water and diets. […] Growth performance (body weight and feed conversion), pathology (bloody droppings and gut morphometry) and survival rate were measured and examined (FIG. 4A). […]

[3] = system: E. tenella challenged chickens; experiment: Gross cecal lesion scores in E. tenella challenged chickens; format: in vivo, chicken; conditions: ceca, Day 7 post ET infection
Excerpt: as §1, §2, §3
Gross lesions in the ceca of the chickens from FIG. 4B were examined and scored. The uninfected unmedicated control chickens (Group 1, Table 4) had no lesions in the ceca (score=0). The ET infection caused more gross cecal lesions in the gut of unmedicated chickens, as evidenced by an average lesion score of 4 (Group 2) on Day 7 post infection.

[4] = system: E. tenella (ET) sporozoites invading Madin-Darby bovine kidney (MDBK) cells; experiment: Invasion assay (sporozoite entry into MDBK cells); format: cell-based, Eimeria tenella; conditions: at 50 μg/ml; untreated invasion 20% of the cells
Protocol: FIGS. 3A-C are photomicrographs (left panels) and bar graphs (right panels) illustrating the in vitro effects of formulations composed of A. indica (AI), B. pilosa (BP), or a mixture of A. indica (AI) and B. pilosa (BP) on E. tenella (ET) sporozoite invasion. Madin-Darby bovine kidney (MDBK) cells were incubated with salinomycin (Sal), or plant extracts containing A. indica (AI)(3A), B. pilosa (BP) (3B) or a mixture of AI and BP (3C) at indicated dosages for 0.5 h. The sporozoites were added to the MDBK cells for […]. After washing, the MDBK cells were stained with hematoxylin and eosin (H&E) and counted. The invasion percentage (%) was plotted into bar graphs. The inset represents a magnified area. Scale bars of microscope in 100× and 40× (inset) are 10 μm and 50 μm (inset), respectively. Arrowhead indicates the MDBK cells infected with sporozoites.
Invasion assay. Madin-Darby bovine kidney (MDBK, ATCC® CCL-22) cells, grown in DMEM containing fetal bovine serum (10%) and supplements, were seeded onto glass cover slips in 24 wells at 2×10^5 cells/well. One day later, the cells were pre-incubated with DMEM medium containing salinomycin, or plant extracts and phytochemicals at doses indicated for 0.5 h. Fresh sporozoites (2×10^5) were added to the cells for additional 4 h. […]

[5] = system: E. tenella challenged chickens; experiment: Feed conversion rate in E. tenella challenged chickens; format: in vivo, chicken; conditions: BP alone 0.01%, AI alone 0.01% in feed
Excerpt: as §1
as §2, with “guidelines. […]” for “guidelines.”

[6] = system: E. tenella challenged chickens; experiment: Body weight gain in E. tenella challenged chickens; format: in vivo, chicken; conditions: BP alone 0.01%, AI alone 0.01%
Excerpt: as §1
as §2, with “All birds were maintained in the institutional animal facility and handled according to institutional guidelines.” left out
Body weights (BW) of the chickens from FIG. 4B were monitored on Days 1, 7 and 14, and body-weight (BW) gains were calculated on Days 7 and 14. […]

[7] = system: E. tenella challenged chickens; experiment: Microscopic cecal lesion scores and histology in E. tenella challenged chickens; format: in vivo, chicken; conditions: ceca, Day 7 post ET infection
Excerpt: as §1, §2
Immunohistochemical staining. Multiple parallel sections of the ceca from chickens that had access to control diet and the diet containing Artemisia indica (AI), B. pilosa (BP), or both for 14 days were flash-frozen. The sections were stained with H&E or anti-insulin antibody, with development of diaminobenzidine tetrahydrochloride, followed by image analysis (Yang et al. Research in Veterinary Science (2015) 98:74-81).
as §3
Mucosal damages caused by coccidia were examined under microscope and scored as microscopic cecal lesions based on the distribution and severity of the mucosal destructions in the chicken cecum.

[8] = system: E. tenella challenged chickens; experiment: Bloody stools in E. tenella challenged chickens; format: in vivo, chicken; conditions: Day 7 post ET infection, versus infected unmedicated birds (100%), FIG. 5
Excerpt: as §1
FIG. 5 is a bar graph showing percentage of bloody stools in each chicken group of FIG. 4A-B on Day 7 post E. tenella (ET) infection. Chicken stools were classified on Day 1 to Day 7 post infection.
as §2, with “All birds were maintained in the institutional animal facility and handled according to institutional guidelines.” left out

E. tenella oocysts = experiment: Sporulation assay; format: cell-based, Eimeria tenella; conditions: positive control, FIG. 2A
Protocol: FIGS. 2A-C are photomicrographs (upper panels) and bar graphs (lower panels) illustrating the in vitro effects of formulations comprising A. indica (AI), B. pilosa (BP), or a mixture of A. indica (AI) and B. pilosa (BP) on viability of E. tenella (ET) oocysts and its sporulation. The oocysts were pre-treated with PBS, sodium dithionite (SD), an inhibitor of oocyst sporulation or plant extracts containing AI (2A), BP (2B), or both AI and BP (2C) at the indicated dosages for 48 h. The oocysts were induced to sporulate by potassium dichromate for 2 days. The percentage of sporulating oocysts was counted using a microscope ([…]) and plotted into bar graphs (right panel); scale bar is 200 μm. Arrow indicates sporulating oocysts whilst arrowhead indicates non-sporulating oocysts.
Sporulation assay. The E tenella oocysts were pre-treated with PBS, boiling (100° C. for 30 min) or plant extracts at indicated doses for 48 h. The oocysts were incubated with 2% potassium dichromate for 2 days before sporulation. The percentage of sporulating oocysts (%) was counted.
The effects of the plant extracts on sporulation of E. ET oocysts were tested. Seventy percent of ET oocysts were able to sporulate in the in vitro culture (PBS, FIG. 2A). […]

## CC[C@@H](C(=O)[C@@H](C)[C@@H](O)[C@H](C)[C@@H]1O[C@@H]([C@@H](CC)C(=O)O)CC[C@@H]1C)[C@H]1O[C@]2(C=C[C@@H](O)[C@]3(CC[C@@](C)([C@H]4CC[C@](O)(CC)[C@H](C)O4)O3)O2)[C@H](C)C[C@@H]1C [salinomycin, Salinomycin]
[1]; Day 3 to Day 7 post ET infection
  oocysts per gram of feces versus infected unmedicated birds (Group 2), result in words: slightly less oocysts per gram of feces
[1]; oocysts per gram feces, Day 3 post ET infection, BP alone 0.01%, AI alone 0.01% in feed
  Ln(OPG ± 1), 3 days post-infection: 0 ± 0
[1]; oocysts per gram feces, Day 4 post ET infection, BP alone 0.01%, AI alone 0.01% in feed
  Ln(OPG ± 1), 4 days post-infection: 3.45 ± 0.16^a,b
[1]; oocysts per gram feces, Day 5 post ET infection, BP alone 0.01%, AI alone 0.01% in feed
  Ln(OPG ± 1), 5 days post-infection: 4.49 ± 0.02^a,b
[1]; oocysts per gram feces, Day 6 post ET infection, BP alone 0.01%, AI alone 0.01% in feed
  Ln(OPG ± 1), 6 days post-infection: 4.89 ± 0.01^a,b
[1]; oocysts per gram feces, Day 7 post ET infection, BP alone 0.01%, AI alone 0.01% in feed
  Ln(OPG ± 1), 7 days post-infection: 5.33 ± 0.01^a,b
[2]
  survival rate: 100%
[3]; chickens in grade / n
  Gross lesion score 0: number of chickens: 0/15
  Gross lesion score 1: number of chickens: 0/15
  Gross lesion score 2: number of chickens: 0/15
  Gross lesion score 3: number of chickens: 1/15
  Gross lesion score 4: number of chickens: 6/15
[3]; infected unmedicated 4.00, BP alone 0.01%, AI alone 0.01% in feed
  Gross lesion score, Average: 3.86 and 3.86 ± 0.10
[4]
  ET sporozoite invasion (invasion percentage of MDBK cells): 10%
[5]; feed intake (Kg) divided by body weight gain on day 7, prior to ET infection
  FCR Day 7-1: 2.42 ± 0.08
[5]; feed intake (Kg) divided by body weight gain on day 14, ET-infected
  FCR Day 14-1: 3.05 and 3.05 ± 0.13
[6]; body weight Day 7 minus Day 1, prior to ET infection, substance in feed from Day 1
  BWG (g) Day 7-1: 27.64 ± 1.16 g
[6]; body weight Day 14 minus Day 1, ET oocysts (1×10^4) on Day 7, substance in feed Day 1 to 14
  BWG (g) Day 14-1: 56.33 g and 56.33 ± 3.15 g
[7]
  Microscopic lesion score 0 (fraction): 0/15
  Microscopic lesion score 1 (fraction): 0/15
  Microscopic lesion score 3 (fraction): 0/15
  Microscopic lesion score 5 (fraction): 0/15
  Microscopic lesion score 7 (fraction): 2/15
[7]; infected unmedicated 7.20, BP alone 0.01%, AI alone 0.01% in feed
  Microscopic lesion score, Average: 6.29 and 6.29 ± 0.13
[8]
  percentage of bloody stools: significantly decrease in the percentage of bloody stools

## O=S([O-])S(=O)[O-].[Na+].[Na+] [sodium dithionite]
E. tenella oocysts
  reduction of sporulation of ET oocysts as compared to the PBS treatment group: 40%
